The assay deals with AgrC-I (Staphylococcus aureus, UniProt Q309Y8). Briefly: reverse autokinase kinetics, Michaelis-Menten. Type of assay: biochemical. The settings on record: reverse reaction from pre-phosphorylated AgrC-I discs; without AIP.

With `Nc1ncnc2c1ncn2[C@@H]1O[C@H](COP(=O)(O)OP(=O)(O)O)[C@@H](O)[C@H]1O` [ADP], the Km result was “the Km for ADP was lower while the kmax was higher than the forward reaction”.

The record behind these values is article PMC4004102 (Molecular cell, 2014).
